{
  "source": "BindingDB's records for PubMed 8226867",
  "about": "(Synaptic Pharmaceutical, 1993)",
  "key": {"[1]": {"molecular_target": "5-hydroxytryptamine receptor 6 (Homo sapiens, UniProt P50406)", "sequence (P50406 whole entry)": "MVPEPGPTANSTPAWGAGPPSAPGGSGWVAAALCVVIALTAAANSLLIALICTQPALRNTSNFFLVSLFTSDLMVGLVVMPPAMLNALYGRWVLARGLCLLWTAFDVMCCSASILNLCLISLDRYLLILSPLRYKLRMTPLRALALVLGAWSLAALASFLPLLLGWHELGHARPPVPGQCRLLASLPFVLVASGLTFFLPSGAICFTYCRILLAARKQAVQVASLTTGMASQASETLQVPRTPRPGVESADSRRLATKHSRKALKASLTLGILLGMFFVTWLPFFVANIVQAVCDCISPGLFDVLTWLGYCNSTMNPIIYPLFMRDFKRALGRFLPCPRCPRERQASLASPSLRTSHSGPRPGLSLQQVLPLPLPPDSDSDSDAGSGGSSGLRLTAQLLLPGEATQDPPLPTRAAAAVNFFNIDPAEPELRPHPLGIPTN"}, "[2]": {"molecular_target": "5-hydroxytryptamine receptor 4 (Mus musculus, UniProt P97288)", "sequence (P97288 whole entry)": "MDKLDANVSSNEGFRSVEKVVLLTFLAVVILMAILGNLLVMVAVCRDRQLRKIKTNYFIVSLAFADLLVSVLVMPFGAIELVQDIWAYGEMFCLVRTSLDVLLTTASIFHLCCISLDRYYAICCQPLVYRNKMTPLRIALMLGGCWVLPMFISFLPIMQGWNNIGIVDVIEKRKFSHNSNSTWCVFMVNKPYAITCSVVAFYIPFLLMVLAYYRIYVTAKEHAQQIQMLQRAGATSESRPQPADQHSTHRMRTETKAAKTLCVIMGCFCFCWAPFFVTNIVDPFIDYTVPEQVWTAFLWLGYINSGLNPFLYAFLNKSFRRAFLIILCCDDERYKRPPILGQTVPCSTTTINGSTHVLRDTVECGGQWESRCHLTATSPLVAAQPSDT"}, "[3]": {"molecular_target": "5-hydroxytryptamine receptor 4 (Rattus norvegicus, UniProt Q62758)", "sequence (Q62758 whole entry)": "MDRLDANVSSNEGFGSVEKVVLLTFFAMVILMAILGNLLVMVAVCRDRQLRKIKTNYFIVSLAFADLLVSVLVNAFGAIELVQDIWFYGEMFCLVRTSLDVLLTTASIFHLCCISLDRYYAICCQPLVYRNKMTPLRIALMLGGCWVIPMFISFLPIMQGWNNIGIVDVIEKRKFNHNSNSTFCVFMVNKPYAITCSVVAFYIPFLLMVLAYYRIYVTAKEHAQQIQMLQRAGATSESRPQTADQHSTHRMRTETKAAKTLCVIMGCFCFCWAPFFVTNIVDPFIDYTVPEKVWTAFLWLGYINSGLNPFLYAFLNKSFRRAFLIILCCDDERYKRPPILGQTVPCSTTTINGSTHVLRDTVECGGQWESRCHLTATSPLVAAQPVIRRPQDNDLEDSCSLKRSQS"}},
  "data": [
    {"smiles": "Cc1nc2sccn2c(=O)c1CCN1CCC(=C(c2ccc(F)cc2)c2ccc(F)cc2)CC1", "values": [
      {"measurement": "Ki", "setting": "[1]", "result": 16, "unit": "nM"}
    ]},
    {"smiles": "c1ccc2c(N3CCNCC3)cccc2c1", "values": [
      {"measurement": "Ki", "setting": "[1]", "result": 104, "unit": "nM"}
    ]},
    {"smiles": "CC[C@@H](CO)NC(=O)[C@@H]1C=C2c3cccc4c3c(cn4C)C[C@H]2N(C)C1", "values": [
      {"measurement": "Ki", "setting": "[1]", "result": 372, "unit": "nM"}
    ]},
    {"smiles": "NCCc1c[nH]c2ccccc12", "note": "[1H-indole-3-ethanamine]", "values": [
      {"measurement": "Ki", "setting": "[2]", "result": "> 10000", "unit": "nM"}
    ]},
    {"smiles": "CN1CC(C(=O)N[C@]2(C)O[C@@]3(O)C4CCCN4C(=O)[C@H](Cc4ccccc4)N3C2=O)CC2c3cccc4[nH]cc(c34)CC21", "note": "(stereo partly drawn) [7-Methyl-4,6,6a,7,8,9,10,10a-octahydro-indolo[4,3-fg]quinoline-9-carboxylic acid ((2R,5S,10bS)-5-benzyl-10b-hydroxy-2-methyl-3,6-dioxo-octahydro-oxazolo[3,2-a]pyrrolo[2,1-c]pyrazin-2-yl)-amide]", "values": [
      {"measurement": "Ki", "setting": "[1]", "result": 5.4, "unit": "nM"}
    ]},
    {"smiles": "CCN(CC)C(=O)[C@@H]1C=C2c3cccc4[nH]c(Br)c(c34)C[C@H]2N(C)C1", "note": "[LSD,2-Bromo]", "values": [
      {"measurement": "Ki", "setting": "[1]", "result": 17.1, "unit": "nM"}
    ]},
    {"smiles": "CN1C[C@@H](NS(=O)(=O)N(C)C)C[C@@H]2c3cccc4c3c(cn4C)C[C@H]21", "note": "[MESULERGINE]", "values": [
      {"measurement": "Ki", "setting": "[1]", "result": 1720, "unit": "nM"}
    ]},
    {"smiles": "CN1C[C@H](CNC(=O)OCc2ccccc2)C[C@@H]2c3cccc4c3c(cn4C)C[C@H]21", "note": "[METERGOLINE]", "values": [
      {"measurement": "Ki", "setting": "[1]", "result": 61, "unit": "nM"}
    ]},
    {"smiles": "COc1cc(N)c(Cl)cc1C(=O)NC1CN2CCC1CC2", "note": "(stereo unspecified) [ZACOPRIDE,R]", "values": [
      {"measurement": "Ki", "setting": "[3]", "result": 316, "unit": "nM"}
    ]},
    {"smiles": "NCCc1c[nH]c2ccc(C(N)=O)cc12", "note": "[[3H]-5-carboxamidotryptamine]", "values": [
      {"measurement": "Ki", "setting": "[1]", "result": 253, "unit": "nM"}
    ]},
    {"smiles": "COc1ccc2[nH]cc(CCN)c2c1", "note": "[tryptamine, 5-Methoxy]", "values": [
      {"measurement": "Ki", "setting": "[3]", "result": 316, "unit": "nM"}
    ]}
  ]
}
